Data: patent US9376449B2, “Indole carboxamide derivative” (Astellas Pharma Inc., priority 2012, dated 2016)

Assays:
isolated urethra [1] = experiment: Isolated urethra contractile action; design: species or system rat; details: for activation at 1 µM: test compound at 1 μM, contractile response by 10 μM phenylephrine as 100%, SD female rat urethra, read-out: Isolated urethra contraction (%)
Protocol: Test Example 2 Isolated Urethra Contractile Action
(1) Evaluation Test on Urethra Contractile Action of Test Compound Using Isolated Urethra
The urethra was isolated from an SD female rat having a body weight of 100 to 500 g. The isolated urethra was incised longitudinally to give a rectangular strip specimen having a width of about 3 mm, which was suspended in the circular muscle direction in 10 mL of a tissue bath filled with a Krebs-Henseleit solution (pH 7.4). The Krebs-Henseleit solution was bubbled with 95% O2 and 5% CO2, and kept at 37° C. The resting tension was set to 0.5 g to record the isometric contraction. After the resting tension was stabilized, contraction was elicited by the addition of 10 μM phenylephrine. After washing and stabilizing, the test compound was added cumulatively to a final concentration of −12 to −5 log M to measure a contractile response. By taking the contractile response by 10 μM phenylephrine as 100%, the ratio of the contractile response in the concentration of the test compound at 1 μM was calculated.
Ex represents Example No. of the test compound.

3T3 = experiment: In vitro 3T3 NRU phototoxicity test; format: cell-based
Protocol: Test Example 6 Drug Pharmacokinetic Test, Safety Pharmacology Test, and Toxicity Test
Using some Example compounds of the present invention, a drug Pharmacokinetic test, a safety pharmacology test, and a toxicity test were carried out.
(iii) For the toxicity test, for example, an in vitro phototoxicity test was carried out. The evaluation of the in vitro phototoxicity test was carried out in accordance with Guidance for industry photosafety testing, Center for Drug Evaluation and Research Food and Drug Administration, 2003, which is a guideline of FDA (U.S. Food and Drug Administration), and Note for guidance on photosafety testing (CPMP/SWP/398/01, 2002) which is a guideline of EMA (European Medicines Agency), and the method described in OECD guideline for testing of chemicals 432: In vitro 3T3 NRU phototoxicity test, 2004, which is a test method described in the report of OECD.

[2] = tested on: sleep steps of electroencephalogram; experiment: Measurement test of electroencephalogram in rat (sleep-awake cycle); format: in vivo; details: for sleep action: rat electroencephalogram, 0.1, 1 and 10 mg/kg intraperitoneally; for change in the occupancy in the respective sleep steps of electroencephalogram: any of the doses 0.1, 1 and 10 mg/kg intraperitoneally
Protocol: Test Example 5 Measurement Test of Electroencephalogram in Rat
In order to accustom the animals to operations during the experiment, handling was carried out for about 1 minute for one example once a day from the next day of the animal acquisition to the day before the administration.
(2) Method for Preparing Electroencephalogram Electrode-Implanted Specimen
After the completion of a quarantine period, the animals showing no abnormal health condition were subjected to an electroencephalogram electrode chronic implantation surgery with reference to brain atlas of Pellegrino et al. Under anesthesia with pentobarbital sodium (45 mg/kg, i.p.), the rat was calibrated in a brain stereotaxic apparatus. In the frontal cortex, a monopolar silver ball electrode having a diameter of the tip of about 1 mm was placed on a hard film of the brain. Into the hippocampus, a laminated bipolar electrodes made of stainless steel was stuck. The reference electrode was screwed around the olfactory brain. Further, as for the electromyogram measurement, the lead wire was implanted in the both electrodes about 1 cm between the electrodes in the neck portion. The other end was exposed to the head portion subcutaneously. The electrodes and the lead wires were subjected to soldering with connector sockets and fixed to the skull with a dental resin or the like.
(3) Sorting and Grouping of Animals
It was confirmed that twenty five rat examples which had been subjected to an electroencephalogram electrode chronic implantation surgery were recovered from the invasion of the surgery, and stable electroencephalogram were obtained therefrom. The weights of the animals were measured after 6 days from the surgery using an electronic scale balance the day before the first administration, and twenty rats were chosen in the descending order and distributed to perform administration. The administration order for the test materials was determined by a stratified random allocation method using a random number function of a spreadsheet software Excel (Microsoft Corporation).
The rats were accommodated in a measurement cage under rat feeding and water supply on the morning of the day of administration, and accustomed to the measurement environment. After measuring the weight using an electronic scale balance, a lead wire and a connector socket were connected 30 minutes or more before the start of the electroencephalogram measurement, and the rat was accustomed in the measurement state under no anesthesia and no custody. The test compounds (solvent, 0.1 mg/kg, 1 mg/kg, and 10 mg/kg) were intraperitoneally administered to the rats and the electroencephalogram was measured continuously until 6 hours after the administration.
The frequency of brain wave were acquired by applying electrical signals of electroencephalogram and of electromyogram an electroencephalogram system and using an electroencephalogram frequency analysis program of a personal computer from the electroencephalograph system. In addition, the image signals of the electroencephalogram waveform were applied to an EEG video system and recorded on a DVD recorder. The behavior observation was carried out through a video camera at the same time as the electroencephalogram measurement and the images were also recorded with the DVD recorder.
(i) Spontaneous Electroencephalogram
The presence or absence of abnormality in the electroencephalogram waveform in up to 6 hours from immediately after the administration, to each animal, respectively, was observed.
The analysis of a sleep-awake cycle was visually carried out using a sleep stage display-supporting program based on the electroencephalogram waveforms acquired with an electroencephalogram frequency analysis program. […]

isolated urethra [3] = experiment: Test confirming that urethra contractile action by ramelteon is through MT1 and/or MT2 receptor (Luzindole); design: species or system rat; details: ramelteon 1 μM; solvent added instead of Luzindole; first contraction by ramelteon as 100%
Protocol: (2) Test for Confirming that Urethra Contractile Action is Action Through MT1 and/or MT2 Receptor
The urethra was isolated from an SD female rat having a body weight of 100 to 500 g. The isolated urethra was incised longitudinally to give a rectangular strip specimen having a width of about 3 mm, which was suspended in the muscle parallel to the circular to 10 mL of a tissue bath filled with a Krebs-Henseleit solution (pH 7.4). […] The resting tension was set to 0.5 g to record the isometric contraction. After the resting tension was stabilized, contraction was elicited by the addition of 10 μM phenylephrine. After washing and stabilizing, the test compound (ramelteon) at 1 μM was added to measure a contractile response. After washing and stabilizing, a solvent or Luzindole (purchased from Wako Pure Chemical Industries, Ltd.) (0.1 μM, 1 μM, or 10 μM) was added to the same specimen, and after 20 minutes, ramelteon at 1 μM was added again thereto to measure a contractile reaction. When the first contraction by ramelteon at 1 μM was taken as 100%, the second contractile rate by ramelteon was measured.

Question: Which activation at 1 µM (isolated urethra [1]) does the source give for CNC(=O)c1[nH]c2cc(F)c(OC)cc2c1CCNC(C)=O [Ex 17] here?
Answer: The activation at 1 µM was 132%.

Question: What about the phototoxicity action (3T3) of the same compound?
Answer: The phototoxicity action was “no phototoxicity action”.

Question: What about the sleep action [2] of the same compound?
Answer: Its sleep action is “there was no sleep action”.

Question: What about the “change in the occupancy in the respective sleep steps of electroencephalogram” value ([2]; rat) of the same compound?
Answer: Its value is “no change in the occupancy in the respective sleep steps of electroencephalogram could not be seen”.

Question: Which activation at 1 µM (isolated urethra [1]) does the source give for CNC(=O)c1[nH]c2ccc(OC)cc2c1CCNC(=O)C(F)F [Ex 2, 3-{2-[(difluoroacetyl)amino]ethyl}-5-methoxy-N-methyl-1H-indole-2-carboxamide] here?
Answer: The activation at 1 µM was 167%.

Question: What about the melting point of the same compound?
Answer: The melting point was 212 to 215 °C.

Question: What about the phototoxicity action (3T3) of the same compound?
Answer: Its phototoxicity action is “no phototoxicity action”.

Question: What about the sleep action [2] of the same compound?
Answer: The sleep action was “there was no sleep action”.

Question: And the “change in the occupancy in the respective sleep steps of electroencephalogram” value ([2]; rat)?
Answer: The value was “no change in the occupancy in the respective sleep steps of electroencephalogram could not be seen”.

Question: For CCC(=O)NCC[C@@H]1CCc2ccc3c(c21)CCO3 [Ramelteon, reference compound], which urethra contractile action (isolated urethra [1]; isolated rat urethra, in words) is on record?
Answer: Its urethra contractile action is “good urethra contractile action”.

Question: And the activation at 1 µM (isolated urethra [1])?
Answer: Its activation at 1 µM is 242%.

Question: And the “Second contractile rate by ramelteon (%)” value (isolated urethra [3])?
Answer: The value was 98 ± 10%.

Question: And the sleep action [2]?
Answer: The sleep action was “there is a sleep action”.

Question: What about the “occupancy of the sleep step of electroencephalogram” value ([2]; rat, 0.1 mg/kg intraperitoneally, up to 6 hours) of the same compound?
Answer: Its value is “tendency that the occupancy of the sleep step of electroencephalogram from a dose of 0.1 mg/kg increases”.

Question: What about the “occupancy of the respective sleep step” value ([2]; rat, 1 mg/kg intraperitoneally, up to 6 hours) of the same compound?
Answer: The value was “significantly increases”.
